In PubChem BioAssay AID1794804 (Yongcheng Song lab at Baylor College of Medicine, 2022):
The source made the active and inactive calls.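 Rule for the calls: active = inhibition above 55% when tested at 5 µM; inactive = the rest.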

Target: Protein AF-9 (Homo sapiens) (UniProt P42568)
Assay: inhibitors of AF9 AHD–DOT1L interaction, biochemical, AlphaLISA, percent inhibition, MBP-tagged AHD (AID 1794804)
Conditions: MBP-AF9 AHD / biotin-DOT1L peptide binding; for inhibition: stronger effect = higher value

Chain of Protein AF-9 (Homo sapiens) (P42568 whole entry, looked up): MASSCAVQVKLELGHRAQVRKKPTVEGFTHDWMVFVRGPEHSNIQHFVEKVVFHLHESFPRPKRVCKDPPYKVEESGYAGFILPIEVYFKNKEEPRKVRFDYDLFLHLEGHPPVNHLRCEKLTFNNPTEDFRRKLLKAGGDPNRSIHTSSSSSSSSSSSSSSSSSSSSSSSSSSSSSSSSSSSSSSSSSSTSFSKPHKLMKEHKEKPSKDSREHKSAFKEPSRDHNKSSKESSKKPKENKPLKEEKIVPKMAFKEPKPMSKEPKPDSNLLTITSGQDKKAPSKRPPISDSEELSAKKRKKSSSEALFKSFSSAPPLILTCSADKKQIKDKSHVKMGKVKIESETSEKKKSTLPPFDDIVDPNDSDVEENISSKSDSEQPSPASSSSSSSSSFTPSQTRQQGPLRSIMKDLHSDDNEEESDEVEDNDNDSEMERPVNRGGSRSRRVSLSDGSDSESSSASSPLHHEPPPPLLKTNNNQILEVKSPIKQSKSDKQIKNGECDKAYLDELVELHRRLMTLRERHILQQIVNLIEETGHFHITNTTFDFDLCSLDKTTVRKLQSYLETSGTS

Compound | inhibition (at 5 µM) | outcome | inhibition (inhibition, at 20 µM) [%]
O=C(NCC1CCNCC1)c1cc2ccc(-c3ccc(N4CCNCC4)cc3)cc2o1 | 38% (inactive) | – | –
O=C(NCC1CCNCC1)c1cc2ccc(-c3ccc(C(=O)N4CCC(N5CCCC5)CC4)cc3)cc2s1 | 5% (inactive) | – | –
O=C(NCC1CCNCC1)c1cc2cc(Nc3ccc(OC(F)(F)F)cc3)ccc2s1 | 24% (inactive) | – | –
CC(=O)c1ccc(-c2ccc3cc(C(=O)NCC4CCNCC4)[nH]c3c2)cc1 | 37% (inactive) | – | –
O=C(NCC1CCNCC1)c1cc2ccc(Nc3ccc(OC(F)(F)F)cc3)cc2o1 | 23% (inactive) | – | –
O=C(NCC1CCNCC1)c1cc2ccc(-c3ccc(C(=O)N4CCC(N5CCCCC5)CC4)cc3)cc2s1 | 0% (inactive) | – | –
O=C(NCC1CCNCC1)c1cc2ccc(-c3ccc(N4CCNCC4)cc3)cc2[nH]1 | – | inactive | 48
Cc1ccc(-c2ccc3cc(C(=O)NCC4CCNCC4)sc3c2)cc1 | 47% (inactive) | – | –
O=C(NCC1CCNCC1)c1cc2ccc(-c3ccc(C(=O)N4CCCCC4)cc3)cc2o1 | 0% (inactive) | – | –
O=C(NCC1CCNCC1)c1cc2ccc(-c3ccc(OC(F)(F)F)cc3)cc2s1 | 14% (inactive) | – | –
N#Cc1ccc(-c2ccc3cc(C(=O)NCC4CCNCC4)sc3c2)cc1F | 26% (inactive) | – | –
O=C(NCC1CCNCC1)c1cc2ccc(-c3ccc(C(=O)N4CCCC4)cc3)cc2s1 | 0% (inactive) | – | –
CCN(CC)c1ccc(-c2ccc3cc(C(=O)NCC4CCNCC4)oc3c2)cc1 | 30% (inactive) | – | –
N#Cc1ccc(-c2ccc3cc(C(=O)NCC4CCNCC4)oc3c2)cc1 | – | inactive | 38
O=C(NCC1CCNCC1)c1cc2ccc(-c3ccc(C(=O)N4CCCC4)cc3)cc2o1 | 1% (inactive) | – | –
O=C(NCC1CCNCC1)c1cc2ccc(-c3ccc(N4CCOCC4)cc3)cc2[nH]1 | 29% (inactive) | – | –
COc1ccc(Oc2ccc3cc(C(=O)NCC4CCNCC4)oc3c2)cc1 | 24% (inactive) | – | –
NCc1ccc(-c2ccc3cc(C(=O)NCC4CCNCC4)[nH]c3c2)cc1 | 11% (inactive) | – | –
CC(C)(C)c1ccc(Nc2ccc3sc(C(=O)NCC4CCNCC4)cc3c2)cc1 | 45% (inactive) | – | –
O=C(NCC1CCNCC1)c1cc2ccc(-c3ccc(Cl)cc3)cc2s1 | 50% (inactive) | – | –
O=C(NCC1CCNCC1)c1cc2ccc(-c3ccc(N4CCOCC4)cc3)cc2o1 | 40% (inactive) | – | –
O=C(NCC1CCNCC1)c1cc2cc(-c3ccc(N4CCNCC4)cc3)ccc2[nH]1 | 36% (inactive) | – | –

Compound | inhibition (at 5 µM) | outcome | inhibition (inhibition, at 20 µM) [%]
O=C(NCC1CCNCC1)c1c[nH]c2ccc(-c3ccc(N4CCCCC4)cc3)cc12 | 43% (inactive) | – | –
CC(C)(C)c1ccc(-c2ccc3sc(C(=O)NCC4CCNCC4)cc3c2)cc1 | – | inactive | 59
O=C(NCC1CCNCC1)c1cc2ccc(-c3ccc(F)cc3)cc2s1 | 21% (inactive) | – | –
O=C(NCC1CCNCC1)c1cc2cc(-c3ccc(-c4ccsc4)cc3)ccc2[nH]1 | 14% (inactive) | – | –
COc1ccc(-c2ccc3cc(C(=O)NCC4CCNCC4)sc3c2)cc1 | 43% (inactive) | – | –
O=C(NCC1CCNCC1)c1cc2ccc(-c3ccsc3)cc2[nH]1 | 10% (inactive) | – | –
O=C(NCC1CCNCC1)c1cc2ccc(-c3ccc(CN4CCCCC4)cc3)cc2s1 | 45% (inactive) | – | –
O=C(NCC1CCNCC1)c1cc2cc(-c3ccc(C(=O)N4CCCCC4)cc3)ccc2s1 | 31% (inactive) | – | –
O=C(NCC1CCNCC1)c1cc2ccc(-c3ccc(-c4ccccc4)cc3)cc2o1 | 0% (inactive) | – | –
CN1CCN(c2ccc(-c3ccc4cc(C(=O)NCC5CCNCC5)oc4c3)cc2)CC1 | 32% (inactive) | – | –
O=C(NCC1CCNCC1)c1cc2ccc(Oc3ccc(Oc4ccc(Cl)cc4)cc3)cc2s1 | 50% (inactive) | – | –
CC(C)(C)c1cccc(-c2ccc3cc(C(=O)NCC4CCNCC4)[nH]c3c2)c1 | 17% (inactive) | – | –
CC(C)(C)c1ccc(-c2ccc3[nH]c(C(=O)NCC4CCNCC4)cc3c2)cc1 | 13% (inactive) | – | –
O=C(NCC1CCNCC1)c1cc2ccc(-c3ccc(O)cc3)cc2s1 | 0% (inactive) | – | –
O=C(NCC1CCNCC1)c1cc2cc(-c3ccc(N4CCOCC4)cc3)ccc2[nH]1 | 52% (inactive) | – | –
O=C(NCC1CCNCC1)c1cc2cc(-c3ccc(C(=O)N4CCCC4)cc3)ccc2s1 | 0% (inactive) | – | –
O=C(NCC1CCNCC1)c1cc2ccc(Nc3ccc(N4CCCCC4)cc3)cc2o1 | 93% | – | –
O=C(NCC1CCNCC1)c1cc2ccc(-c3ccc(C(=O)N4CCC(N5CCCCC5)CC4)cc3)cc2o1 | 0% (inactive) | – | –
CS(=O)(=O)c1ccc(-c2ccc3cc(C(=O)NCC4CCNCC4)oc3c2)cc1 | 19% (inactive) | – | –
CS(=O)(=O)c1ccc(-c2ccc3cc(C(=O)NCC4CCNCC4)sc3c2)cc1 | 49% (inactive) | – | –
O=C(NCC1CCNCC1)c1cc2ccc(-c3ccc(CO)cc3)cc2s1 | 0% (inactive) | – | –
O=C(NCC1CCNCC1)c1cc2ccc(-c3ccc(C(=O)N4CCCCCC4)cc3)cc2o1 | 0% (inactive) | – | –

Compound | inhibition (at 5 µM) | outcome | inhibition (inhibition, at 20 µM) [%]
N#Cc1ccc(-c2ccc3[nH]c(C(=O)NCC4CCNCC4)cc3c2)cc1F | 8% (inactive) | – | –
N#CCc1ccc(-c2ccc3cc(C(=O)NCC4CCNCC4)sc3c2)cc1 | 50% (inactive) | – | –
O=C(NCc1ccc(-c2ccc3cc(C(=O)NCC4CCNCC4)oc3c2)cc1)OCc1ccccc1 | 27% (inactive) | – | –
O=C(NCC1CCNCC1)c1cc2ccc(-c3cccc(-c4ccccc4)c3)cc2o1 | – | inactive | 49
O=C(NCC1CCNCC1)c1cc2ccc(N3CCC(N4CCCCC4)CC3)cc2s1 | 14% (inactive) | – | –
O=C(NCC1CCNCC1)c1cc2ccc(-c3ccc(C(=O)N4CCCCC4)cc3)cc2s1 | 8% (inactive) | – | –
O=C(NCC1CCNCC1)c1cc2ccc(-c3ccc(C4CCCCC4)cc3)cc2o1 | – | inactive | 54
NC(=O)c1ccc(-c2ccc3cc(C(=O)NCC4CCNCC4)sc3c2)cc1 | 0% (inactive) | – | –
CCN(CC)c1ccc(-c2ccc3cc(C(=O)NCC4CCNCC4)sc3c2)cc1 | 25% (inactive) | – | –
CC(=O)Nc1ccc(-c2ccc3cc(C(=O)NCC4CCNCC4)sc3c2)cc1 | 0% (inactive) | – | –
O=C(NCC1CCNCC1)c1cc2ccc(Oc3ccc(Oc4ccc(Cl)cc4)cc3)cc2o1 | 20% (inactive) | – | –
Cc1cc(C#N)ccc1-c1ccc2[nH]c(C(=O)NCC3CCNCC3)cc2c1 | 0% (inactive) | – | –
O=C(NCC1CCNCC1)c1cc2ccc(-c3ccc(N4CCOCC4)cc3)cc2s1 | 40% (inactive) | – | –
CC(C)(C)c1ccc(-c2ccc3cc(C(=O)NCC4CCNCC4)sc3c2)cc1 | – | inactive | 70
O=C(NCC1CCNCC1)c1cc2ccc(-c3ccc(C4CCCCC4)cc3)cc2[nH]1 | 31% (inactive) | – | –
O=C(NCC1CCNCC1)c1cc2ccc(N3CCC(N4CCCC4)CC3)cc2s1 | 20% (inactive) | – | –
O=C(NCC1CCNCC1)c1cc2ccc(-c3ccc4c(c3)OCCO4)cc2o1 | 33% (inactive) | – | –
N#Cc1ccc(-c2ccc3sc(C(=O)NCC4CCNCC4)cc3c2)cc1 | – | inactive | 30
O=C(NCC1CCNCC1)c1coc2cc(-c3ccc(N4CCCCC4)cc3)ccc12 | 59% | – | –
O=C(NCC1CCNCC1)c1cc2ccc(-c3ccc(CCO)cc3)cc2[nH]1 | – | inactive | 22
N#Cc1cccc(-c2ccc3cc(C(=O)NCC4CCNCC4)[nH]c3c2)c1 | 0% (inactive) | – | –
